The values that follow come from patent US12667574B2, “Paraxanthine-based bioactive composition and method of use thereof” (PX ING, LLC, priority 2021, dated 2026).

What all share (conditions): oral 14 days
Assay [1] deals with male Swiss Albino Wistar rats. The assay is described as follows: Walter Morris Maze test (Example 3). It is filed as in vivo. The method, then:
Distilled water was provided ad libitum. […] Ltd (Bangalore, India). […] The last dose on day 14 was given 1 hour prior to testing. The Walter Morris Maze test consisted of a circular pool in a room with geometric shapes on the wall serving as spatial cues. The pool, which is 70 cm in diameter and painted with black color, filled with 13 cm depth of 25±1° C. water. A platform (6 cm diameter) was placed into one quadrant of the pool and submerged 1 cm below the water surface. For the training, all rats were trained to locate the submerged platform in constant location. The training day consisted of four trials. […] The rat was allowed to remain on the platform for 15 seconds before being dried off and later was transferred to a holding cage.

The test system of assay [2] is brain derived neuro factor, BDNF. Kind of assay: BDNF level, neuroplasticity (Example 3). The assay is classed as in vivo, rats. The method, then: (§1) Distilled water was provided ad libitum. […] Ltd (Bangalore, India).
(§2) 0.5% Carboxy Methyl Cellulose sodium was used as vehicle and the test item formulations were prepared daily. […] The last dose on day 14 was given 1 hour prior to testing.

For a further assay, the system named is acetylcholine (Ach). Kind of assay: Acetylcholine concentration (Example 3). It is filed as in vivo, rats. As for the experimental part:
as §1, §2

A further assay deals with dopamine (dopa). The assay is described as follows: Dopamine concentration (Example 3). It is filed as in vivo, rats. As for the experimental part:
as §1, §2

Another assay concerns glutathione (GSH). The assay is described as follows: Glutathione level (Example 3). It is filed as in vivo, rats. As for the experimental part: as §1, §2

As for `C[N+](C)(C)CCOP(=O)([O-])OC[C@H](O)CO` [alpha-GPC, L-Alpha glycerylphosphorylcholine, reference compound], the results for the escape latency in assay [1] (old rats (16-month-old)) and in assay [1] (young rats (8-week-old)) were 39.83 ± 0.98 s and 34.83 ± 1.33 s, respectively. The BDNF in assay [2] (old rats) and in assay [2] (young rats) was 881.70 ± 10.41 µg/mL each time. The “acetylcholine (Ach) concentration” value in the assay with acetylcholine (Ach) (old rats) was 56.89±1.76 U/mL; with acetylcholine (Ach) (young rats), 65.89±1.64 U/mL. The “dopamine (dopa) concentration” value in the assay on dopamine (dopa) (old rats) was determined as 506.35 ± 2.82 ng/L; with dopamine (dopa) (young rats), 563.55 ± 7.98 ng/L. For the same compound, the “glutathione (GSH) level” value in the assay on glutathione (GSH) (old rats) worked out at 24.72 ± 0.48 µg/mL; with glutathione (GSH) (young rats), 31.72 ± 0.53 µg/mL.
Consider `Cn1cnc2c1c(=O)[nH]c(=O)n2C` [theobromine, reference compound], for which the escape latency in assay [1] (old rats (16-month-old)) came out at 42.33 ± 1.63 s; in assay [1] (young rats (8-week-old)), 37.67 ± 2.07 s. Also, the “acetylcholine (Ach) concentration” value in the assay with acetylcholine (Ach) (old rats) is given as 56.67±1.32 U/mL; in the assay on acetylcholine (Ach) (young rats) it was 64.28±0.88 U/mL. In addition, the entries for the “dopamine (dopa) concentration” value with dopamine (dopa) (old rats) and in the assay on dopamine (dopa) (young rats) were 503.03 ± 9.29 ng/L and 552.73 ± 10.42 ng/L, respectively. Besides, the “glutathione (GSH) level” value turned out to be 24.53 ± 0.54 µg/mL in the assay on glutathione (GSH) (old rats) and 31.28 ± 0.78 µg/mL in the assay with glutathione (GSH) (young rats).
Take `Cn1c(=O)c2[nH]cnc2n(C)c1=O` [theophylline, reference compound]: the escape latency came to 43.83 ± 1.47 s in assay [1] (old rats (16-month-old)) and 38.00 ± 1.90 s in assay [1] (young rats (8-week-old)). Also, the “acetylcholine (Ach) concentration” value with acetylcholine (Ach) (old rats) worked out at 55.33±1.05 U/mL; in the assay on acetylcholine (Ach) (young rats), 63.89±1.64 U/mL. Besides, the “dopamine (dopa) concentration” value in the assay with dopamine (dopa) (old rats) worked out at 495.82 ± 10.86 ng/L; with dopamine (dopa) (young rats), 543.78 ± 6.11 ng/L. In addition, the “glutathione (GSH) level” value with glutathione (GSH) (old rats) amounted to 24.23 ± 0.63 µg/mL; with glutathione (GSH) (young rats) it was 29.78 ± 1.07 µg/mL.
